First: CCNCCOc1ccncc1NC(=O)c1c[nH]c2c1C(=O)CCC2.Cl
Second: CCCNCCOc1ccncc1NC(=O)c1c[nH]c2c1C(=O)CCC2.Cl
The melting point of the first is higher: 178 to 180 °C for the first, 177 to 178 °C for the second.

First: CC(C)NCCOc1ccncc1NC(=O)c1c[nH]c2c1C(=O)CCC2.Cl
Second: CCCCNCCOc1ccncc1NC(=O)c1c[nH]c2c1C(=O)CCC2.Cl
The melting point of the first is higher: 167 to 169 °C for the first, 157 to 159 °C for the second.

First: Cl.O=C(Nc1cnccc1OCCNCc1ccccc1)c1c[nH]c2c1C(=O)CCC2
Second: Cl.O=C(Nc1cnccc1OCc1cccnc1)c1c[nH]c2c1C(=O)CCC2
The melting point of the first is lower: 143 to 145 °C for the first, 276 to 277 °C for the second.

First: Cl.O=C(Nc1cnccc1OCc1ccncc1)c1c[nH]c2c1C(=O)CCC2
Second: CCCNCCOc1ccncc1NC(=O)c1c[nH]c2c1C(=O)CCCC2.Cl
The melting point of the first is higher: 293 °C for the first, 210 °C for the second.

First: Cl.O=C(Nc1cnccc1OCCN1CCCCC1)c1c[nH]c2c1C(=O)CCC2
Second: Cl.O=C(Nc1cnccc1OCCN1CCCC1)c1c[nH]c2c1C(=O)CCCC2
The melting point of the first is higher: 208 to 211 °C for the first, 160 to 162 °C for the second.

Compared with `CCNCCOc1ccc(NC(=O)c2c[nH]c3c2C(=O)CCCC3)cc1.Cl`, `CCNCCOc1ccc(NC(=O)c2c[nH]c3c2C(=O)CCC3)cc1` [Compound 62, N-[4-(2-Ethylaminoethoxy)phenyl]-4-oxo-4,5,6,7-tetrahydro-1H-indole-3-carboxamide] is lower in melting point: 227 to 228 °C for the first, 140 to 141 °C for the second.

Compared with `CCN(CC)CCN(C)C(=O)COc1ccc(NC(=O)c2c[nH]c3c2C(=O)CCC3)cc1`, `CCN(CC)CCN(CC)C(=O)COc1ccc(NC(=O)c2c[nH]c3c2C(=O)CCC3)cc1` is lower in melting point: 220 to 228 °C for the first, 165 to 167 °C for the second.

Compared with `CCCNCCOc1ccc(NC(=O)c2c[nH]c3c2C(=O)CCC3)cc1F.Cl`, `CC(C)CNCCOc1ccc(NC(=O)c2c[nH]c3c2C(=O)CCC3)cc1F` [Compound 77, N-[3-Fluoro-4-(2-Isobutylaminoethoxy)phenyl]-4-oxo-4,5,6,7-tetrahydro-1H-indole-3-carboxamide] is lower in melting point: 373 °C for the first, 147 to 149 °C for the second.

First: CCCCNCCOc1ccc(NC(=O)c2c[nH]c3c2C(=O)CCC3)cc1.Cl
Second: CCCNCCOc1ccc(NC(=O)c2c[nH]c3c2C(=O)CCC3)cc1 [Compound 64, N-[4-(2-n-Propylaminoethoxy)phenyl]-4-oxo-4,5,6,7-tetrahydro-1H-indole-3-carboxamide]
The melting point of the first is higher: 187 to 190 °C for the first, 130 to 133 °C for the second.

Compared with `Cl.O=C(Nc1ccc(OCC2CCCNC2)cc1)c1c[nH]c2c1C(=O)CCC2` (centres unmarked), `O=C(Nc1ccc(OC[C@@H]2CCCN2)cc1)c1c[nH]c2c1C(=O)CCC2` [Compound 85, N-{4-[(S)-Pyrrolidin-2-ylmethoxy]phenyl}-4-oxo-4,5,6,7-tetrahydro-1H-indole-3-carboxamide] is lower in melting point: 196 to 199 °C for the first, 165 to 167 °C for the second.

First: O=C(Nc1ccc(OCCO)cc1)c1c[nH]c2c1C(=O)CCC2 [Compound 16, N-[4-(Hydroxyethoxy)phenyl]-4-oxo-4,5,6,7-tetrahydro-1H-indole-3-carboxamide]
Second: CN(C)CCOc1ccc(NC(=O)c2c[nH]c3c2C(=O)CCC3)cc1 [Compound 88, N-[4-(2-Dimethylaminoethoxy)phenyl]-4-oxo-4,5,6,7-tetrahydro-1H-indole-3-carboxamide]
The melting point of the first is higher: 245 to 247 °C for the first, 201 °C for the second.

Compared with `COCc1ccc(NC(=O)c2c[nH]c3c2C(=O)CCC3)cc1` [Compound 18, N-[4-(Methoxymethyl)phenyl]-4-oxo-4,5,6,7-tetrahydro-1H-indole-3-carboxamide], `CNCc1ccc(NC(=O)c2c[nH]c3c2C(=O)CCC3)cc1` [Compound 19, N-[4-(Methylaminomethyl)phenyl]-4-oxo-4,5,6,7-tetrahydro-1H-indole-3-carboxamide] is higher in melting point: 164 to 165 °C for the first, 217 to 219 °C for the second.

Compared with `CCNCc1ccc(NC(=O)c2c[nH]c3c2C(=O)CCC3)cc1` [Compound 21, N-[4-(Ethylaminomethyl)phenyl]-4-oxo-4,5,6,7-tetrahydro-1H-indole-3-carboxamide], `CC(C)NCc1ccc(NC(=O)c2c[nH]c3c2C(=O)CCC3)cc1` [Compound 22, N-[4-(Isopropylaminomethyl)phenyl]-4-oxo-4,5,6,7-tetrahydro-1H-indole-3-carboxamide] is lower in melting point: 194 to 195 °C for the first, 164 to 166 °C for the second.

Compared with `CN(C)Cc1ccc(NC(=O)c2c[nH]c3c2C(=O)CCC3)cc1` [Compound 23, N-[4-(Dimethylaminomethyl)phenyl]-4-oxo-4,5,6,7-tetrahydro-1H-indole-3-carboxamide], `O=C(Nc1ccc(CCN2CCCC2)cc1)c1c[nH]c2c1C(=O)CCC2` [Compound 59, N-[4-(2-Pyrrolidin-1-ylethyl)phenyl]-4-oxo-4,5,6,7-tetrahydro-1H-indole-3-carboxamide] is lower in melting point: 216 to 218 °C for the first, 184 to 186 °C for the second.

First: CNCc1ccc(NC(=O)c2c[nH]c3c2C(=O)CC(C)C3)cc1 (centres unmarked) [Compound 27, N-[4-(Methylaminomethyl)phenyl]-4-oxo-6-methyl-4,5,6,7-tetrahydro-1H-indole-3-carboxamide]
Second: CC1CC(=O)c2c(C(=O)Nc3ccc(CO)cc3)c[nH]c2C1 (centres unmarked) [Compound 28, N-[4-(Hydroxymethyl)phenyl]-4-oxo-6-methyl-4,5,6,7-tetrahydro-1H-indole-3-carboxamide]
The melting point of the first is lower: 217 to 219 °C for the first, 260 to 262 °C for the second.

Compared with `CC1(C)CC(=O)c2c(C(=O)Nc3ccc(OCCO)cc3)c[nH]c2C1` [Compound 30, N-[4-(2-Hydroxyethoxy)phenyl]-4-oxo-6,6-dimethyl-4,5,6,7-tetrahydro-1H-indole-3-carboxamide], `CC1(C)CC(=O)c2c(C(=O)Nc3ccc(CO)cc3)c[nH]c2C1` [Compound 31, N-[4-(Hydroxymethyl)phenyl]-4-oxo-6,6-dimethyl-4,5,6,7-tetrahydro-1H-indole-3-carboxamide] is lower in melting point: 268 to 270 °C for the first, 245 to 247 °C for the second.

First: CNCc1ccc(NC(=O)c2c[nH]c3c2C(=O)CC(C)(C)C3)cc1 [Compound 32, N-[4-(Methylaminomethyl)phenyl]-4-oxo-6,6-dimethyl-4,5,6,7-tetrahydro-1H-indole-3-carboxamide]
Second: CC1(C)CC(=O)c2c(C(=O)Nc3ccc4c(c3)OCO4)c[nH]c2C1 [Compound 43, N-(1,3-Benzodioxol-5-yl)-4-oxo-6,6-dimethyl-4,5,6,7-tetrahydro-1H-indole-3-carboxamide]
The melting point of the first is lower: 230 to 232 °C for the first, 245 to 246 °C for the second.

First: O=C(Nc1ccc2c(c1)NCCO2)c1c[nH]c2c1C(=O)CCC2 [Compound 33, N-(3,4-Dihydro-2H-1,4-benzoxazin-6-yl)-4-oxo-4,5,6,7-tetrahydro-1H-indole-3-carboxamide]
Second: O=C(Nc1ccc2c(c1)CCN2)c1c[nH]c2c1C(=O)CCC2 [Compound 35, N-(2,3-Dihydro-1H-indol-5-yl)4-oxo-4,5,6,7-tetrahydro-1H-indole-3-carboxamide]
The melting point of the first is lower: 216 °C for the first, 283 to 286 °C for the second.

First: CC1(C)CCc2[nH]cc(C(=O)Nc3ccc4c(c3)OCCO4)c2C1=O [Compound 37, N-(2,3-Dihydro-1,4-benzodioxin-6-yl)-4-oxo-5,5-dimethyl-4,5,6,7-tetrahydro-1H-indole-3-carboxamide]
Second: CC1(C)CCc2[nH]cc(C(=O)Nc3ccc4c(c3)OCOC4)c2C1=O [Compound 38, N-(4H-1,3-Benzodioxin-7-yl)-4-oxo-5,5-dimethyl-4,5,6,7-tetrahydro-1H-indole-3-carboxamide]
The melting point of the first is lower: 241 to 243 °C for the first, 251 to 252 °C for the second.

First: O=C(Nc1ccc2c(c1)OCO2)c1c[nH]c2c1C(=O)CCCC2 [Compound 39, N-(1,3-Benzodioxol-5-yl)-4-oxo-1,4,5,6,7,8-hexahydro-cyclohepta[b]pyrrole-3-carboxamide]
Second: CC1CC(=O)c2c(C(=O)Nc3ccc4c(c3)OCO4)c[nH]c2C1 (centres unmarked) [Compound 41, N-(1,3-Benzodioxol-5-yl)-4-oxo-6-methyl-4,5,6,7-tetrahydro-1H-indole-3-carboxamide]
The melting point of the first is lower: 210 to 212 °C for the first, 297 to 299 °C for the second.

First: CC1CC(=O)c2c(C(=O)Nc3ccc4c(c3)OC(C)(C)O4)c[nH]c2C1 (centres unmarked) [Compound 40, N-(2,2-Dimethyl-1,3-benzodioxol-5-yl)-4-oxo-6-methyl-4,5,6,7-tetrahydro-1H-indole-3-carboxamide]
Second: CC1CC(=O)c2c(C(=O)Nc3ccc4c(c3)OCCO4)c[nH]c2C1 (centres unmarked) [Compound 42, N-(2,3-Dihydro-1,4-benzodioxin-6-yl)-4-oxo-6-methyl-4,5,6,7-tetrahydro-1H-indole-3-carboxamide]
The melting point of the first is lower: 155 to 157 °C for the first, 290 to 292 °C for the second.

Compared with `CC1(C)CC(=O)c2c(C(=O)Nc3ccc4c(c3)OCOC4)c[nH]c2C1` [Compound 45, N-(4H-1,3-Benzodioxin-7-yl)-4-oxo-6,6-dimethyl-4,5,6,7-tetrahydro-1H-indole-3-carboxamide], `CC(C)NCCOc1ccc(NC(=O)c2c[nH]c3c2C(=O)CCC3)cc1` [Compound 69, N-[4-(2-Isopropylaminoethoxy)phenyl]-4-oxo-4,5,6,7-tetrahydro-1H-indole-3-carboxamide] is higher in melting point: 234 to 236 °C for the first, 284 to 286 °C for the second.

First: O=C(Nc1ccc(OCCNCC2CC2)cc1F)c1c[nH]c2c1C(=O)CCC2 [Compound 72, N-[2-Fluoro-4-(2-Cyclopropylmethylaminoethoxy)phenyl]-4-oxo-4,5,6,7-tetrahydro-1H-indole-3-carboxamide]
Second: CC(C)CNCCOc1ccc(NC(=O)c2c[nH]c3c2C(=O)CCC3)c(F)c1 [Compound 76, N-[2-Fluoro-4-(2-Isobutylaminoethoxy)phenyl]-4-oxo-4,5,6,7-tetrahydro-1H-indole-3-carboxamide]
The melting point of the first is higher: 247 to 250 °C for the first, 152 to 155 °C for the second.

Compared with `CC(C)(C)NCCOc1ccc(NC(=O)c2c[nH]c3c2C(=O)CCC3)cc1` [Compound 81, N-[4-(2-t-Butylaminoethoxy)phenyl]-4-oxo-4,5,6,7-tetrahydro-1H-indole-3-carboxamide], `O=C(Nc1ccc(OCCNC2C3CC4CC(C3)CC2C4)cc1)c1c[nH]c2c1C(=O)CCC2` (centres unmarked) [Compound 83, N-[4-(2-adamant-2-ylaminoethoxy)phenyl]-4-oxo-4,5,6,7-tetrahydro-1H-indole-3-carboxamide] is lower in melting point: 290 to 292 °C for the first, 144 to 149 °C for the second.

In the case of `Cl.O=C(Nc1cnccc1OCCN1CCCC1)c1c[nH]c2c1C(=O)CCC2`, the melting point was 188 to 245 °C (dec.).
In the case of `Cl.O=C(Nc1cnccc1OCc1ccncc1)c1c[nH]c2c1C(=O)CCCC2`, the melting point was 235 to 240 °C (dec.).

Source: patent publication US6515140B2, “Fused pyrrolecarboxamides; a new class of GABA brain receptor ligands” (Neurogen Corporation, priority 1996, dated 2003)
